This is an account of results in patent publication US5552156A, “Liposomal and micellular stabilization of camptothecin drugs” (Ohio State University, priority 1995, dated 1996).

Holding throughout (type): physicochemical
Series [1] is described as follows: HPLC assay of lactone ring hydrolysis, free in PBS or associated with liposomes or micelles. The protocol: A high performance liquid chromatography assay was used to determine the rate of hydrolysis of camptothecin and topotecan free in aqueous solution and to compare such rates with the rate of hydrolysis for the same drugs when bound to the DMPG and DMPC liposome membranes. The assay was conducted under near physiological conditions; the pH was 7.4, the temperature was 37° C. and the ionic strength was physiological. A Spectroflow model 980 fluorescence detector coupled to an HP 3392A integrator which acquired and processed the chromatograms, was used. For camptothecin, an Ultrasphere ODS C-18 250 mm long column was used. The mobile phase consisted of 32% acetonitrile, 67% 0.1M acetate buffer, pH 5.5, and 1% 01.M sodium dodecylsulfate at a flow rate of 1 mL/min. The detector was set to 370 nm excitation wavelength and a 418 nm long pass emission filter. A 1 μM solution of camptothecin in PBS was prepared and incubated at 37° C. Immediately after mixing the drug stock solution with PBS and at intervals of 5 min thereafter, 50 μL aliquots were taken out and mixed with 150 μL methanolic internal standard, 9-toluoylamidocamptothecin and either analyzed immediately or kept cold under dry ice. 150 μL of this mixture was diluted with 125 μL water and 200 μL was injected. The ratio of the peak areas corresponding to the intact lactone form of the camptothecin drug and the internal standard at a particular time was normalized to that at the time of mixing and was considered as the concentration of the intact lactone form.
For topotecan the excitation wavelength was 362 nm and the emission was observed through a 470 long wave pass filter. The stationary phase was Waters Nova-Pak C-18 150mm long column. The mobile phase consisted of 500 mL 0.1M KH2 PO4, 550 mL acetonitrile, 4.2 mL triethylamine (distilled over molecular sieves), 4.44 g sodium dioctylsulfosuccinate (DOSS), and 970 ml water. The pH was adjusted to 6.0 with H3 PO4. Internal standard solution contained 50×10^-9 g acridine from Eastman and 20×10^-3 M DOSS in methanol and was always kept cold at ≤-20° C. Next 150 μL or cold internal standard solution was mixed with 50 μL aliquot containing topotecan, centrifuged for 1 minute and the supernatant was either analyzed immediately or stored at -20° C. for analysis at a later time, within 2 hours. Samples were monitored at time points from 0 minutes, that is, immediately following dissolution, up to 72 hours.
The kinetics of lactone ring hydrolysis for free camptothecin, CMC and topotecan are shown in of FIGS. 7a, 7b and 7c. Analysis of the decay profile for camptothecin, CMC and topotecan free in PBS was accomplished using a nonlinear least squares program.

Series [2] is described as follows: Fluorescence excitation and emission spectra of camptothecin drugs free in solution and bound to liposomes. The text has this: The camptothecin drugs are intrinsically intensely fluorescent. Fluorescence is associated with the extended conjugation of the quinoline ring system. The liposomes of Examples 1-7 were characterized for the presence of the camptothecin drugs, using excitation and emission spectrography, and fluorescence anisotropy.
(§1) Steady-state fluorescence measurements were obtained on a SLM Model 4800C. spectrofluorometer with a thermostated cuvette compartment. This instrument was interfaced with an IBM PS/2 model 55 SX computer. Excitation and emission spectra were recorded with an excitation resolution of 8 nm and an emission resolution of 4 nm. In all cases spectra were corrected for background fluorescence and scatter from unlabeled lipids or from solvents by subtraction of the spectrum of a blank. Steady-state fluorescence intensity measurements were made in the absence of polarizer. Steady-state anisotropy (a) measurements were determined with the instrument in the "T-format" for simultaneous measurement of two polarized intensities. The alignment of polarizers were checked routinely using a dilute suspension of 0.25 μm polystyrene microspheres from Polysciences, Inc, Warrington, Pa., in water; anisotropy values of >0.99 were obtained. The anisotropy was calculated from a=(Ivv -GlVH)/(Ivv +GIVH), where G-IVH /IHH and the subscripts refer to vertical and horizontal orientations of the excitation and emission polarizers, respectively.
(§2) Anisotropy measurements for camptothecin, camptothecin carboxylate sodium salt, and 10,11-methylenedioxycamptothecin were conducted using exciting light of 370 nm and 420 nm long wave pass filters on each emission channel in order to isolate the fluorescence signal from background scatter and signal. For topotecan a 400 nm excitation wavelength and a 500 nm emission filter were used and for 9-aminocamptothecin a 375 nm excitation and a wavelength 420 nm emission filter were used. For AMC and CMC, a 370 nm excitation wavelength and a 400 nm emission filter were used. For 10-hydroxycamptothecin 375 nm excitation wavelength 500 nm emission filter was used. Emission filters were obtained from Oriel Corp. Stamford, Conn. The combination of exciting light and emission filters allows one to adequately separate the fluorescence from the background signal. The contribution of background fluorescence, together with scattered light, was typically less than 1% of the total intensity. Since the lactone ring of the camptothecin drug undergoes hydrolysis in aqueous medium, all measurements were completed within the shortest possible time, less than 1 minute after mixing the drug stock solution with PBS or the liposomes. In each case, analysis was initiated immediately after mixing the drug stock solution with PBS or with the liposomes. All measurements were performed at 37° C. unless otherwise noted.
The relative fluorescence intensity of 1×10^-6 M of camptothecin free in PBS buffer at 37° C. is shown. The emission spectra of the camptothecin was recorded using exciting light of 370 nm.
An exciting light of 390 nm was used to record the emission spectra of topotecan. A decrease in the emission intensity is observed for topotecan associated with the DMPG liposome.
All spectra were recorded using camptothecin drug concentrations of 2
μM. The DMPC and DMPG concentrations were 0.29 M. Experiments were
conducted in PBS buffer at 37° C.
Also found in Table II is a relative index of the emission intensity levels from these camptothecin drugs in PBS at their respective excitation and emission λMAX.

Series [3] can be described thus: Steady-state fluorescence anisotropy in solvents and liposomes. As to conditions: pH 3, 37° C. The protocol:
as §1, §2
While the spectral changes provide qualitative evidence that the camptothecin drugs bind the liposome membranes, fluorescence anisotropy titration, offers the most sensitive means for quantitatively assessing the extent of the binding. The fluorescence anisotropy titration was performed according to the method of Burke and Tritton, Biochemistry 24: 1768-1776 (1985).
A steady-state fluorescence anisotropy (a) measurement is related to the rotational rate of the fluorescent molecule through the Perrin Equation: […]
where a0 is the limiting fluorescence anisotropy value, that is, the anisotropy value in the absence of depolarizing rotations, T is the excited-state lifetime, and .phi. is the rotational correlative time of the fluorophore. According to Equation 1, changes in either the T or .phi. values of a fluorescent compound can modulate its steady-state anisotropy.
The limiting fluorescence anisotropy (a0) values were also measured. The maximum values of (a) were obtained by dissolving the camptothecin drugs in the viscous solvent glycerol and cooling the samples to low temperatures. Steady-stated anisotropy (a) values were determined for samples containing 1 μM drug at 37° C.
Where the solvent viscosity is high and temperature is low, depolarizing rotations are at a minimum. By extrapolating these (a) values to -25° C., the limiting anisotropy values (a0) for the camptothecin drugs, were determined. […]
Background: In fluorescence polarisation assays a small probe gives low polarisation when free and higher when bound to something large.

Series [4] in a line: Overall association constant by fluorescence anisotropy titration, DMPC liposomes. As to conditions: DMPC, pH 3.0.

As to `CCC1(O)C(=O)OCc2c1cc1n(c2=O)Cc2cc3c(N)cccc3nc2-1` (centres unmarked) [9-aminocamptothecin], the “lactone hydrolysis when associated with liposomes” value in series [1] (DMPC and DMPG liposomes) was “some hydrolysis occurred at 1 hour”. For the same molecule, in series [1] (DMPC liposomes, pH 7.4, 37° C.), the “C/L drug DMPC Lip.” value was found to be 0.45. The “t1/2 drug DMPC Lip.” value in series [1] (DMPC liposomes, pH 7.4, 37° C.) was 56 min. In addition, the “C/L drug DMPG Lip.” value in series [1] (DMPG liposomes, pH 7.4, 37° C.) stood at 0.15. Also, the “t1/2 drug DMPG Lip.” value in series [1] (DMPG liposomes, pH 7.4, 37° C.) turned out to be 49 min. In addition, the “lactone ring hydrolysis at 5 hours” value in series [1] (DMPG or DMPC liposomes, 5 hours) was not above 40%. The “carboxylate/lactone ratio (C/L) free drug” value in series [1] (final equilibrium, free in PBS, pH 7.4, 37° C.) is given as 6.0. The t1/2 free drug in series [1] (lactone hydrolysis, free in PBS, pH 7.4, 37° C.) was found to be 22.5 min. Also, the “λMAX emission, DMPC” value in series [2] (DMPC liposomes 0.29 M, pH 7.4, 37° C.) was found to be 442 nm; in series [2] (pH 3.0, DMPC liposomes) it was 477 nm. For the same molecule, the “λMAX emission, DMPG” value in series [2] (DMPG liposomes 0.29 M, pH 7.4, 37° C.) was 436 nm. Besides, the “shift of emission maxima upon decrease of pH / protonation” value in series [2] (free in PBS) was “about 25 nm”. The “reduction in emission intensity levels relative to camptothecin” value in series [2] (free in PBS, pH 7.4) is listed as 1000 -fold. Moreover, the “λMAX emission, PBS” value came out at 439 nm in series [2] (free in PBS, pH 7.4, 37° C.) and 464 nm in series [2] (pH 3.0, free in PBS). Besides, the “Relative Fluorescence” value in series [2] (in PBS, pH 7.4, at excitation and emission λMAX) is reported as 0.001; in series [2] (pH 3.0, PBS) it was 0.001. For the same molecule, the λMAX excitation in series [2] (pH 3.0) was 381 nm; in series [2] (pH 7.4, 2 μM drug, PBS, 37° C.), 381 nm. Besides, the “spectral shift on association with DMPC liposomes, towards the blue region” value in series [2] (pH 3.0, DMPC) was 13 nm. Moreover, the “steady-state anisotropy (a), DMPC” value in series [3] (DMPC liposomes) is on record as 0.190. Moreover, in series [3] (PBS), the “steady-state anisotropy (a), PBS” value came to 0.009. The “overall association constant K, DMPC” value in series [4] was 25 M⁻¹.
